Data reported in PubChem BioAssay (NCI).
Values joined by “and” are separate entries in the source; they are usually repeats but may differ in a detail not shown here. Equal values may be shown once.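 96-well plates; 48 h exposure; 5 concentrations. Endpoints by linear interpolation between flanking doses. Not reached: highest tested concentration assigned. GI50 = concentration required for 50% inhibition of growth. TGI denotes the concentration required for complete inhibition of growth.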

What was measured:
Assay in all cases: DTP human tumour cell line panel, 48 h
SF-295 CNS = tested on: SF-295 CNS
MALME-3M melanoma = tested on: MALME-3M melanoma
RXF 393 renal = tested on: RXF 393 renal
SF-268 CNS = tested on: SF-268 CNS
NCI-H23 lung = tested on: NCI-H23 lung
COLO 205 colon = tested on: COLO 205 colon
SK-OV-3 ovarian = tested on: SK-OV-3 ovarian
MDA-MB-231 breast = tested on: MDA-MB-231 breast
T-47D breast = tested on: T-47D breast
SK-MEL-5 melanoma = tested on: SK-MEL-5 melanoma

Compound	TGI (SF-295 CNS)	TGI (MALME-3M melanoma)	TGI (RXF 393 renal)	TGI (SF-268 CNS)	TGI (NCI-H23 lung)	TGI (COLO 205 colon)	TGI (SK-OV-3 ovarian)	TGI (MDA-MB-231 breast)	TGI (T-47D breast)	TGI (SK-MEL-5 melanoma)	GI50 (SF-295 CNS) [µM]	GI50 (MALME-3M melanoma)	GI50 (RXF 393 renal) [µM]	GI50 (SF-268 CNS) [µM]	GI50 (NCI-H23 lung) [µM]	GI50 (COLO 205 colon) [µM]	GI50 (SK-OV-3 ovarian) [µM]	GI50 (MDA-MB-231 breast) [µM]	GI50 (T-47D breast) [µM]	GI50 (SK-MEL-5 melanoma) [µM]
O=S(=O)(c1cccc(C(F)(F)F)c1)N1c2ccccc2-n2cccc2C1c1cccnc1 (centres undefined)	> 100 µM	> 54.5 µM	> 53.9 µM	> 66 µM	> 100 µM	> 54.6 µM	> 78.9 µM	> 54.5 µM	> 70.4 µM	> 43 µM										
CS(=O)(=O)c1nccc(-c2c(-c3cccc(OCc4ccc(F)cc4)c3)nc3sccn23)n1	> 100 µM	> 100 µM	> 100 µM	> 100 µM	> 100 µM	> 100 µM	> 100 µM	> 100 µM	> 100 µM	> 24.2 µM	> 100	67.3 µM	21.7	40.1	11.7	45	47.4	34.3	9.52	2.51
COc1ccccc1-c1cc2c3c(nc4ccccc42)C(=O)c2cccnc2-c3n1	50.8 µM	28.7 µM	46.8 µM	38.9 µM	25.3 µM	55.1 µM	51.2 µM	> 56.7 µM	> 94.6 µM	25.4 µM	17.4	15.4 µM	16.7	17.6	9.06	20.9	20.8	18.2	9.08	12.5
COc1ccc(OC)c(/C=C/[N+](=O)[O-])c1	9.46 µM and 11.4 µM	7.26 µM and 11 µM	3.59 µM and 3.54 µM	10 µM and 12.3 µM	13.6 µM and 8.12 µM	4.06 µM and 6.76 µM	26.2 µM and 10.3 µM	5.32 µM	46.8 µM	4.29 µM and 6.58 µM	3.09	2.19 µM and 5.66 µM	1.8							2.06
C=CC1CC12C(=O)C1OC2(C)C2C(=O)c3ccccc3C(=O)C12 (centres undefined)	59.8 µM	59.1 µM	> 100 µM	> 92.5 µM	> 59.8 µM	> 100 µM	> 100 µM	> 100 µM	> 100 µM	54.7 µM	23.6	21.3 µM	35.2	> 54	39.4	> 100	> 93.3	24.8	51.4	18.7
COc1ccc(C2C3=C(NC(=O)C2C#N)c2ccc4ccccc4c2OCC3)cc1 (centres undefined)	> 100 µM	77.3 µM	48.9 µM	76.2 µM	> 100 µM	> 100 µM	47.1 µM	43.2 µM	> 100 µM	> 100 µM	27.4	34.9 µM	16.3	23.3	87.1	> 100	20	17.9	> 100	> 100
COC1/C=C/O[C@@]2(C)Oc3c(C)c(O)c4c(O)c(cc(O)c4c3C2=O)NC(=O)/C(C)=C\C=C\[C@H](C)C(O)[C@@H](C)[C@@H](O)[C@@H](C)[C@H](OC(C)=O)[C@@H]1C (some centres undefined)	196 µM	25.9 µM and 77.9 µM	29.9 µM and 25.7 µM	33.4 µM and 61.7 µM	33.8 µM	15.5 µM and 10.6 µM	211 µM	27.2 µM and 56.2 µM	23.2 µM and 48.5 µM	67.6 µM and 88.1 µM		12.8 µM	14	18.3		4.25		14.2	8.63	25.6
COc1ccc2c(c1)O/C(=C\c1cccc(OCC(=O)Nc3nc4ccccc4s3)c1)C2=O	> 71.7 µM	4.37 µM	3.99 µM	11 µM	> 100 µM	> 100 µM	> 100 µM	> 23.1 µM	> 100 µM	> 100 µM	11.4	2 µM	1.96	4.83	3.58	> 100	> 100	7.35	9.66	> 51.5
COc1ccc(-c2nc(-c3nc4ccc(F)cc4[nH]3)cc3c2[nH]c2ccccc23)cc1		8.99 µM	4.55 µM	> 100 µM	10.9 µM	4.71 µM	> 100 µM	8.95 µM	> 100 µM	4.61 µM		2.33 µM	1.72	3.24	3.01	2.1	4	2.3	2.56	1.8
CCN(CC)c1ccc(NC(C(=O)c2ccccc2)c2ccccc2)cc1 (centres undefined)	12.6 µM	7.44 µM	3.47 µM	17.4 µM	4.67 µM	11.9 µM	78.3 µM	10.3 µM	29 µM	4.66 µM	3.34	2.76 µM	1.7	4.23	2.15	3.41	18.6	2.85	3.35	2
O=C1Nc2ccc(Cl)cc2/C1=C\c1c(-c2ccc(F)cc2)nc2ccccn12	4.23 µM	14.8 µM	4.2 µM	6.04 µM	7.57 µM	13.6 µM	5.06 µM	36.6 µM	19.6 µM	7.45 µM	1.87	3.8 µM	1.87	2.34	2.37	4.03	2.18	3.5	4.35	2.38
Cc1ccc(NS(=O)(=O)c2ccc(-c3cnc(C4CC4)o3)cc2)cc1	12.2 µM	17.6 µM	10.7 µM	21.3 µM	17.9 µM	16.1 µM	19.6 µM	18.8 µM	11 µM	8.29 µM	2.66	2.48 µM	2.36	6.19	4.1	3.64	4.81	4.5	2.68	2.43
